Where a name gives a salt, the structure may show the parent alone.
Legend:
[1] = test system: penile erection in Wistar rats; assay: Rat penile erection model; assay type: in vivo; conditions: reference compound
Experimental: Wistar rats were used as a primary animal model to study penile erection in vivo. All experiments were carried out between 9:00 AM and 3:00 PM in a diffusely illuminated testing room with a red light. Animals (n=8-30) were weighed and allowed to adapt to the testing room for 60 minutes before the beginning of experiments. Rats were placed individually in a transparent cage (20×30×30 cm) after drug injection.

SMILES | melting point [°C] | most efficacious dose [1] [µmol/kg]
N#CCON=C(CCN1CCN(c2ccccn2)CC1)c1ccccc1 (as salt: maleate) [Example 29, ({[1-phenyl-3-(4-pyridin-2-ylpiperazin-1-yl)propylidene]amino}oxy)acetonitrile] | 127 to 128 | –
CCCCON=C(CCN1CCN(c2ccccn2)CC1)c1ccccc1 (as salt: maleate) [Example 30, 1-phenyl-3-(4-pyridin-2-ylpiperazin-1-yl)propan-1-one O-butyloxime] | 154 to 155 | –
CC(C)O/N=C(\CCN1CCN(c2ccccn2)CC1)c1ccccc1 (as salt: maleate) [Example 31, (1E)-1-phenyl-3-(4-pyridin-2-ylpiperazin-1-yl)propan-1-one O-isopropyloxime] | 156 to 157 | –
CON=C(c1ccc(Cl)cc1)C(C)CN1CCN(c2ccccn2)CC1 (stereo not shown) (as salt: maleate) [Example 39, 1-(4-chlorophenyl)-2-methyl-3-(4-pyridin-2-ylpiperazin-1-yl)propan-1-one O-methyloxime] | 152 to 153 | –
ON=C(CCN1CCN(c2ccccn2)CC1)c1ccc(F)cc1 [Example 21, 1-(4-fluorophenyl)-3-(4-pyridin-2-ylpiperazin-1-yl)propan-1-one oxime] | 159 to 160 | –
O/N=C(\CCN1CCN(c2ccccn2)CC1)c1ccc(Cl)cc1 [Example 22, (1E)-1-(4-chlorophenyl)-3-(4-pyridin-2-ylpiperazin-1-yl)propan-1-one oxime] | 188 to 190 | –
CN1CCc2cccc3c2[C@H]1Cc1ccc(O)c(O)c1-3 [apomorphine, (6aR) 5,6,6a,7-tetrahydro-6-methyl-4H-dibenzo[de,g]quinoline-10,11-diol] | – | 0.1
